From ChEMBL document CHEMBL5034037, “Synthesis, Characterization, and Preclinical Evaluation of a Small-Molecule Prostate-Specific Membrane Antigen-Targeted Monomethyl Auristatin E Conjugate” (J Med Chem, 2021)
Where “and” joins values, the source holds several entries; their conditions need not be identical. Equal entries are not always repeated. Calls of active or inactive are those of the source. *1 amine or outer side, *2 acyl side, *3 side chain or, on linkers, in order; H or OH if unused. Where a SMILES comes first, the peptide text is derived from it. [ ]: non-standard residue; d: D form. The star is where a group is joined. GluureaLys(ε-3-ClBenzyl) = O=C(O)CC[C@H](NC(=O)N[C@@H](CCCCN(Cc1cccc(Cl)c1)*)C(=O)O)C(=O)O; Dolaproine = CO[C@@H]([C@@H]1CCCN1)[C@@H](C)C(=O)O; Dil = CC[C@H](C)[C@H](NC)[C@@H](CC(=O)O)OC; X1 = O=C(CCCc1cn(CCCN[*:1])nn1)[*:2]; PABC = O=C(OCc1ccc(N[*:1])cc1)[*:2]; X2 = C[C@@H](N*)[C@@H](O)c1ccccc1; Cit = NC(=O)NCCC[C@H](N)C(=O)O; Suc = O=C(CCC(=O)[*:2])[*:1]; NMeV = CN[C@H](C(=O)O)C(C)C; Ahx = NCCCCCC(=O)O

Tests used:
[1] = Toxicity in rabbit assessed as morphological changes in spleen at 81 to 122 microg/kg, iv; assay type: tissue-based, Oryctolagus cuniculus; conditions: in vivo, dose 81-122 µg/kg
[2] = AUC (0 to t) in Wistar rat at 1.5 mg/kg, iv; assay type: ADME, organism-based; design: dose 1.5 mg/kg; conditions: in vivo
[3] = Acute toxicity in iv dosed Wistar rat assessed as maximum tolerated dose; assay type: organism-based; conditions: in vivo, read-out: MNTD
Cytochrome P450 2C8 = molecular target: T1, Cytochrome P450 2C8 (Homo sapiens, UniProt P10632); assay: Inhibition of CYP2C8 in human liver microsome using paclitaxel as substrate; assay type: ADME, microsomes
T1 sequence (P10632 whole entry): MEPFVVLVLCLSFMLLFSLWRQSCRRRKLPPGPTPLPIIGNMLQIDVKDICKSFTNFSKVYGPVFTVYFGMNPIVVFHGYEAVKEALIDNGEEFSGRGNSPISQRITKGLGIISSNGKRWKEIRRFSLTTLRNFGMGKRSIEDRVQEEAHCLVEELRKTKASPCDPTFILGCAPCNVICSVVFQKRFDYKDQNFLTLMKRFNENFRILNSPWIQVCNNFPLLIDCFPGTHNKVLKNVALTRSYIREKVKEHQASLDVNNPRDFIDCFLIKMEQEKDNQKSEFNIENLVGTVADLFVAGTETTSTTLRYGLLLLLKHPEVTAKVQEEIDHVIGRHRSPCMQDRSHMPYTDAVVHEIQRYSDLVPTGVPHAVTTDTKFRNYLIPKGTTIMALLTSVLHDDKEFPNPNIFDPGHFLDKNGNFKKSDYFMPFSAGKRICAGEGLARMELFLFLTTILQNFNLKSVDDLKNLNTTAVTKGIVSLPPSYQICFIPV

[4] = Chronic toxicity in rabbit assessed as increase in stomach weight at 5.4 microg/kg, iv; assay type: tissue-based, Oryctolagus cuniculus; conditions: in vivo, 0.0054 mg/kg, dose 5.4 µg/kg
[5] = Chronic toxicity in rat assessed as mortality rate at 10 microg/kg, iv dosed measured after 3 days; assay type: organism-based; conditions: in vivo, 0.01 mg/kg, dose 10 µg/kg, time 3 day, read-out: Activity
[6] = Toxicity in rabbit assessed as morphological changes in adrenal medulla at 81 to 122 microg/kg, iv; design: species or system Oryctolagus cuniculus; conditions: in vivo, dose 81-122 µg/kg
[7] = Toxicity in rabbit assessed as morphological changes in duodenum at 81 to 122 microg/kg, iv; assay type: tissue-based, Oryctolagus cuniculus; conditions: in vivo, dose 81-122 µg/kg
[8] = Volume of distribution in Wistar rat at 1.5 mg/kg, iv; assay type: ADME, organism-based; conditions: in vivo
Salmonella typhimurium [9] = assay: Mutagenecity in Salmonella typhimurium TA98 in presence of metabolic activation system at 1000 ug/ml by Ames test; assay type: toxicity, organism-based; conditions: salmonella enterica subsp. enterica serovar typhimurium; dose 1000 µg/ml
[10] = Toxicity in rat assessed as morphological changes in spleen pulp at 150 to 225 microg/kg, iv; assay type: tissue-based; conditions: in vivo, dose 150-225 µg/kg
[11] = Toxicity in rat assessed as morphological changes in brain sulcus at 150 to 225 microg/kg, iv; assay type: tissue-based; conditions: in vivo, dose 150-225 µg/kg
Cytochrome P450 3A4 = Cytochrome P450 3A4 (Homo sapiens, UniProt P08684); assay: Inhibition of CYP3A4 in human liver microsome using testosterone as substrate; assay type: ADME, microsomes
Cytochrome P450 3A4, sequence (P08684 whole entry): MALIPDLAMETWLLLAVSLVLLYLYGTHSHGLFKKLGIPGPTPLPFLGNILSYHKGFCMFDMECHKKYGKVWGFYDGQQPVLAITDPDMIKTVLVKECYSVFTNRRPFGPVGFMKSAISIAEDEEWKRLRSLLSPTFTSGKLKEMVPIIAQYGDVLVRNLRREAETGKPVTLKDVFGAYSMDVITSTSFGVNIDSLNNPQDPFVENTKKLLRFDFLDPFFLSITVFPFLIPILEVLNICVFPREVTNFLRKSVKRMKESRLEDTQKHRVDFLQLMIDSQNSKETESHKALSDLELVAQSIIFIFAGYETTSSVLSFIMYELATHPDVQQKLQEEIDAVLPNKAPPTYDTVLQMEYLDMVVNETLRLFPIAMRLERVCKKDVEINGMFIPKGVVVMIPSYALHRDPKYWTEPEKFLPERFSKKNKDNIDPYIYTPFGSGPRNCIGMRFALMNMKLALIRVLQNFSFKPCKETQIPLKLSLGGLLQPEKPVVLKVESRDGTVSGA

[12] = Toxicity in rat assessed as morphological changes in lumen of trachea at 150 to 225 microg/kg, iv; assay type: tissue-based; conditions: in vivo, dose 150-225 µg/kg
[13] = Toxicity in rat assessed as morphological changes in testes at 150 to 225 microg/kg, iv; conditions: in vivo, dose 150-225 µg/kg
Salmonella typhimurium [14] = assay: Mutagenecity in Salmonella typhimurium TA97 in presence of metabolic activation system at 10000 ug/ml by Ames test; assay type: toxicity, organism-based; conditions: salmonella enterica subsp. enterica serovar typhimurium; dose 10000 µg/ml
[15] = Toxicity in rat assessed as morphological changes in cerebrum at 150 to 225 microg/kg, iv; assay type: tissue-based; conditions: in vivo, dose 150-225 µg/kg
Salmonella typhimurium [16] = assay: Mutagenecity in Salmonella typhimurium TA97 without metabolic activation system at 1000 ug/ml by Ames test; assay type: toxicity, organism-based; conditions: salmonella enterica subsp. enterica serovar typhimurium; dose 1000 µg/ml
[17] = Stability of the compound in human liver microsome assessed as half life; assay type: ADME; conditions: liver microsomes
Salmonella typhimurium [18] = assay: Mutagenecity in Salmonella typhimurium TA97 in presence of metabolic activation system at 1000 ug/ml by Ames test; assay type: toxicity, organism-based; conditions: salmonella enterica subsp. enterica serovar typhimurium; dose 1000 µg/ml
[19] = Toxicity in rabbit assessed as hemorrhage at 81 to 122 microg/kg, iv; design: species or system Oryctolagus cuniculus; conditions: in vivo, dose 81-122 µg/kg
Salmonella typhimurium [20] = assay: Mutagenecity in Salmonella typhimurium TA100 without metabolic activation system at 100 ug/ml by Ames test; assay type: toxicity, organism-based; conditions: salmonella enterica subsp. enterica serovar typhimurium; dose 100 µg/ml
[21] = Toxicity in rabbit assessed as morphological changes in brain gyrus at 81 to 122 microg/kg, iv; assay type: tissue-based, Oryctolagus cuniculus; conditions: in vivo, dose 81-122 µg/kg
Cytochrome P450 2C9 = Cytochrome P450 2C9 (Homo sapiens, UniProt P11712); assay: Drug metabolism assessed as human liver microsome CYP2C9-mediatd metabolism; assay type: ADME; conditions: microsomes
Cytochrome P450 2C9, sequence (P11712 whole entry): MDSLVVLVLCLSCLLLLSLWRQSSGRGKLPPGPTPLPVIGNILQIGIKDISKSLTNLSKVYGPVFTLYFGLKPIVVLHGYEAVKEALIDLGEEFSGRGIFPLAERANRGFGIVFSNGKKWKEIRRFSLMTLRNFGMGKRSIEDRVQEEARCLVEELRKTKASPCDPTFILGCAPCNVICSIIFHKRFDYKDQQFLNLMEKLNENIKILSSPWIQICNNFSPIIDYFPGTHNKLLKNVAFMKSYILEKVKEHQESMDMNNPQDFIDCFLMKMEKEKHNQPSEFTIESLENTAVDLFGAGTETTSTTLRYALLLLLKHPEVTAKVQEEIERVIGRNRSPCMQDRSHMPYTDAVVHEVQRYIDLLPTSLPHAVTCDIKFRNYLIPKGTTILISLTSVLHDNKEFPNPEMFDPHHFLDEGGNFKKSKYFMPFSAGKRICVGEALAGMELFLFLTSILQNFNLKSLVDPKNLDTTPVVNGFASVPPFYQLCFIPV

[22] = Toxicity in rat assessed as morphological changes in peritoneum at 150 to 225 microg/kg, iv; assay type: tissue-based; conditions: in vivo, dose 150-225 µg/kg
[23] = Toxicity in rabbit assessed as morphological changes in heart at 81 to 122 microg/kg, iv; assay type: tissue-based, Oryctolagus cuniculus; conditions: in vivo, dose 81-122 µg/kg
[24] = Toxicity in rat assessed as morphological changes in adrenal medulla at 150 to 225 microg/kg, iv; conditions: in vivo, dose 150-225 µg/kg
CWR22R = assay: Induction morphological changes in human 22Rv1 cells assessed as decrease in cell membrane stiffness measured upto 1 hr; assay type: functional, cell-based; conditions: time hrs <=1
[25] = Toxicity in rabbit assessed as morphological changes in mucosa of trachea at 81 to 122 microg/kg, iv; assay type: tissue-based, Oryctolagus cuniculus; conditions: in vivo, dose 81-122 µg/kg
[26] = Toxicity in rabbit assessed as thrombosis at 81 to 122 microg/kg, iv; design: species or system Oryctolagus cuniculus; conditions: in vivo, dose 81-122 µg/kg
[27] = Antitumor activity against human PC-3 cells xenografted in mouse assessed as tumour growth inhibition at 0.3 mg/kg, ip daily treated for 5 days after 18 days of tumor implantation measured upto 15 days; assay type: functional; conditions: PC-3, ip, 120 h, time 5 day, read-out: TGI
[28] = Toxicity in rat assessed as morphological changes in bronchi at 150 to 225 microg/kg, iv; conditions: in vivo, dose 150-225 µg/kg
Oryctolagus cuniculus = species on record: Oryctolagus cuniculus; assay: Induction of morphological change in heart of rabbit; assay type: organism-based; conditions: in vivo
[29] = Toxicity in rabbit morphological change in mucosae of mouth at 81 to 122 microg/kg, iv; assay type: tissue-based, Oryctolagus cuniculus; conditions: in vivo, dose 81-122 µg/kg
[30] = Toxicity in rat assessed as morphological changes in loops of colon at 150 to 225 microg/kg, iv; assay type: tissue-based; conditions: in vivo, dose 150-225 µg/kg
PC-3 = assay: Induction morphological changes in human PC-3 cells assessed as decrease in cell membrane stiffness measured upto 1 hr; assay type: functional, cell-based; conditions: time hrs <=1
Salmonella typhimurium [31] = assay: Mutagenecity in Salmonella typhimurium TA97 in presence of metabolic activation system at 10 ug/ml by Ames test; assay type: toxicity, organism-based; conditions: salmonella enterica subsp. enterica serovar typhimurium; dose 10 µg/ml
[32] = Toxicity in rat assessed as morphological changes in adrenal gland at 150 to 225 microg/kg, iv; assay type: tissue-based; conditions: in vivo, dose 150-225 µg/kg
[33] = Acute toxicity in iv dosed Wistar rat assessed as median mortality dose; assay type: organism-based; conditions: in vivo
Salmonella typhimurium [34] = assay: Mutagenecity in Salmonella typhimurium TA98 without metabolic activation system at 1 ug/ml by Ames test; assay type: toxicity, organism-based; conditions: salmonella enterica subsp. enterica serovar typhimurium; dose 1 µg/ml
Salmonella typhimurium [35] = assay: Mutagenecity in Salmonella typhimurium TA98 in presence of metabolic activation system at 10000 ug/ml by Ames test; assay type: toxicity, organism-based; conditions: salmonella enterica subsp. enterica serovar typhimurium; dose 10000 µg/ml

CC[C@H](C)[C@@H]([C@@H](CC(=O)N1CCC[C@H]1[C@H](OC)[C@@H](C)C(=O)N[C@H](C)[C@@H](O)c1ccccc1)OC)N(C)C(=O)[C@@H](NC(=O)[C@H](C(C)C)N(C)C(=O)OCc1ccc(NC(=O)[C@H](CCCNC(N)=O)NC(=O)[C@@H](NC(=O)CCCc2cn(CCCNC(=O)[C@H](Cc3ccc(O)cc3)NC(=O)[C@H](Cc3ccccc3)NC(=O)CCC(=O)NCCCCCC(=O)N(CCCC[C@H](NC(=O)N[C@@H](CCC(=O)O)C(=O)O)C(=O)O)Cc3cccc(Cl)c3)nn2)C(C)C)cc1)C(C)C ({GluureaLys(ε-3-ClBenzyl)-Ahx-Suc}-FY[X1]V[Cit][PABC][NMeV]V[Dil][Dolaproine]-X2)
11.2 µM: IC50 (Cytochrome P450 3A4)
0.126 L/kg: Vd [8]
90%: mortality at 72 h [5]
4.9 mg/kg and 2.2 µmol/kg: LD50 [33]
Metabolite_Notdetected: Drug metabolism (Cytochrome P450 2C9)
> 25 µM: IC50 (Cytochrome P450 2C8)
active: Activity (CWR22R) | Activity (PC-3)
76000 ng·h/mL: AUC(0-t) [2]
34.3 min: half-life [17]
4 mg/kg: MTD [3]
Toxic: Activity [4] | Activity [19] | Activity [26]
37.7%: inhibition in vivo at 0.3 mg/kg [27]
Non-Toxic: Activity [1] | Activity [6] | Activity [7] | Activity (Salmonella typhimurium [9]) | Activity [10] | Activity [11] | Activity [12] | Activity [13] | Activity (Salmonella typhimurium [14]) | Activity [15] | Activity (Salmonella typhimurium [16]) | Activity (Salmonella typhimurium [18]) | Activity (Salmonella typhimurium [20]) | Activity [21] | Activity [22] | Activity [23] | Activity [24] | Activity [25] | Activity [28] | Activity (Oryctolagus cuniculus) | Activity [29] | Activity [30] | Activity (Salmonella typhimurium [31]) | Activity [32] | Activity (Salmonella typhimurium [34]) | Activity (Salmonella typhimurium [35])
